Experimental data as given in US20240279228A1, “NOVEL SALTS AND CRYSTALS” (INTRA-CELLULAR THERAPIES, INC., priority 2021, published 2024).
Where a name gives a salt, the structure may show the parent alone. Read-outs that look alike come from different tables or passages of the source.

Assays:
[1] = Colour and chemical stability of the solid salt in air; type: physicochemical; conditions: for Colorization: tosylate salt product of process experiment
[2] = Solubility of the salts in water; type: physicochemical; conditions: salt
[3] = solid tosylate salt of WO2020/131895, on standing; cited from earlier work
[4] = Solubility of Compound A free base in solvents; type: physicochemical
[5] = Hygroscopicity of Compound A free base; type: physicochemical
[6] = Decomposition of salt crystals by NMR; type: physicochemical; conditions: crystals from salt screening
Protocol: Further experiments are performed using some of the successful acid/solvent/method conditions from Example 1, with variations in the solvent volume and/or material concentrations and/or changes to the molar ratio of Compound A free base to acid (1:1.2, 1:1.5 or 1:2). Some experiments are further repeated at a 500 mg scale for confirmation of the results, including additional analysis, including 1H-NMR, DSC/TGA, and/or FTIR.

## O=C1CN2c3c(cccc3[C@@H]3CN(CCCOc4ccc(F)cc4)CC[C@@H]32)N1 [Example 3]
[1]; at room temperature
  Colour change of the powder: slowly turns purple

## O=C1CN2c3c(cccc3[C@@H]3CN(CCCOc4ccc(F)cc4)CC[C@@H]32)N1 [Compound 3-2]
[1]
  Colorization: Yes

## O=C1CN2c3c(cccc3[C@@H]3CN(CCCOc4ccc(F)cc4)CC[C@@H]32)N1 [Compound 5-2]
[1]
  Colorization: No

## O=C1CN2c3c(cccc3[C@@H]3CN(CCCOc4ccc(F)cc4)CC[C@@H]32)N1 [Compound 5-4]
[1]
  Colorization: No

## O=C1CN2c3c(cccc3[C@@H]3CN(CCCOc4ccc(F)cc4)CC[C@@H]32)N1 [tosylate salt]
[2]
  Solubility in water: 1.2 to 1.7 mg/mL
[3]
  Discoloration on standing: discolors on standing

## O=C1CN2c3c(cccc3[C@@H]3CN(CCCOc4ccc(F)cc4)CC[C@@H]32)N1 [Compound 5-3]
[1]
  Colorization: No

## O=C1CN2c3c(cccc3[C@@H]3CN(CCCOc4ccc(F)cc4)CC[C@@H]32)N1 [oxalate salt]
[2]
  Solubility in water: 0.2 to 0.3 mg/mL

## O=C1CN2c3c(cccc3[C@@H]3CN(CCCOc4ccc(F)cc4)CC[C@@H]32)N1 [Compound A, (6bR,10aS)-8-(3-(4-fluorophenoxy)propyl)-6b,7,8,9,10,10a-hexahydro-1H-pyrido[3′,4′:4,5]pyrrolo[1,2,3-de]quinoxalin-2(3H)-one]
[4]; free base form
  Solubility (general): very poor solubility
[4]; free base, DMSO
  Solubility in DMSO: freely soluble
[4]; free base, anisole
  Solubility in anisole: sparingly soluble
[4]; free base, ethyl salicylate
  Solubility in ethyl salicylate: sparingly soluble
[4]; free base, most organic solvents and water
  Solubility in most organic solvents and water: less than sparingly soluble
[4]; free base, water, read-out: Solubility in water
  solubility: < 11 mg/mL
[4]; organic solvent or mixture, free base, 2-butanol, read-out: Solubility in 2-butanol
  solubility: < 11 mg/mL
[4]; organic solvent or mixture, free base, cyclohexane, read-out: Solubility in cyclohexane
  solubility: < 11 mg/mL
[4]; organic solvent or mixture, free base, ethyl acetate, read-out: Solubility in ethyl acetate
  solubility: < 11 mg/mL
[4]; organic solvent or mixture, free base, heptane, read-out: Solubility in heptane
  solubility: < 11 mg/mL
[4]; organic solvent or mixture, free base, methanol, read-out: Solubility in methanol
  solubility: < 11 mg/mL
[5]
  Hygroscopicity: slightly hygroscopic

## O=C1CN2c3c(cccc3[C@@H]3CN(CCCOc4ccc(F)cc4)CC[C@@H]32)N1 [Compound 5-1]
[1]
  Colorization: No

## O=C1CN2c3c(cccc3[C@@H]3CN(CCCOc4ccc(F)cc4)CC[C@@H]32)N1 [hydrochloride crystals]
[6]
  Decomposition by NMR: show decomposition

## O=C1CN2c3c(cccc3[C@@H]3CN(CCCOc4ccc(F)cc4)CC[C@@H]32)N1 [Compound 5-5]
[1]
  Colorization: Slight
